Test results: PubChem BioAssay (NCI)
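At the GI50, growth is halved. The concentration for full growth arrest is given as TGI.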

Assays:
Test in all cases: growth of human tumour cells (NCI), 384-well format
786-0 renal = test system: 786-0 renal
A498 renal = test system: A498 renal
A549 NSCLC = test system: A549 NSCLC
ACHN renal = test system: ACHN renal
BT-549 breast = test system: BT-549 breast
CAKI-1 renal = test system: CAKI-1 renal
CCRF-CEM leukemia = test system: CCRF-CEM leukemia
DU-145 prostate = test system: DU-145 prostate
EKVX NSCLC = test system: EKVX NSCLC
HCT-116 colon = test system: HCT-116 colon
HCT-15 colon = test system: HCT-15 colon
HL-60(TB) leukemia = test system: HL-60(TB) leukemia
HOP-62 NSCLC = test system: HOP-62 NSCLC
HOP-92 NSCLC = test system: HOP-92 NSCLC
HS 578T breast = test system: HS 578T breast
HT29 colon = test system: HT29 colon
IGROV1 ovarian = test system: IGROV1 ovarian
K-562 leukemia = test system: K-562 leukemia
KM12 colon = test system: KM12 colon
LOX IMVI melanoma = test system: LOX IMVI melanoma
M14 melanoma = test system: M14 melanoma
MALME-3M melanoma = test system: MALME-3M melanoma
MCF7 breast = test system: MCF7 breast
MDA-MB-231 breast = test system: MDA-MB-231 breast
MDA-MB-435 melanoma = test system: MDA-MB-435 melanoma
MDA-MB-468 breast = test system: MDA-MB-468 breast
NCI-H226 lung = test system: NCI-H226 lung

SMILES: COc1cc([C@@H]2c3cc4c(cc3[C@@H](OC3OC5CO[C@@H](c6cccs6)OC5C(O)C3O)[C@H]3COC(=O)[C@H]23)OCO4)cc(OC)c1O (some centres not stated)
- GI50 ([…]-0 renal): 197 nM
- TGI (786-0 renal): 1180 nM
- GI50 (A498 renal): 206 nM
- TGI (A498 renal): 3510 nM
- GI50 (A549 NSCLC): 173 nM
- TGI (A549 NSCLC): 4080 nM
- GI50 (ACHN renal): 296 nM
- TGI (ACHN renal): 1710 nM
- GI50 (BT-549 breast): 75.8 nM
- TGI (BT-549 breast): 537 nM
- GI50 (CAKI-1 renal): 224 nM
- TGI (CAKI-1 renal): 4460 nM
- TGI (CCRF-CEM leukemia): 21.9 nM
- GI50 (DU-145 prostate): 212 nM
- TGI (DU-145 prostate): 1210 nM
- GI50 (EKVX NSCLC): 3010 nM
- TGI (EKVX NSCLC): 28700 nM
- GI50 (HCT-116 colon): 67.8 nM
- TGI (HCT-116 colon): 2020 nM
- GI50 (HCT-15 colon): 170 nM
- TGI (HCT-15 colon): 1390 nM
- TGI (HL-60(TB) leukemia): 11.6 nM
- GI50 (HOP-62 NSCLC): 74.1 nM
- TGI (HOP-62 NSCLC): 267 nM
- GI50 (HOP-92 NSCLC): 321 nM
- TGI (HOP-92 NSCLC): 8750 nM
- GI50 (HS 578T breast): 62.4 nM
- TGI (HS 578T breast): 703 nM
- GI50 (HT29 colon): 236 nM
- TGI (HT29 colon): 1230 nM
- GI50 (IGROV1 ovarian): 1350 nM
- TGI (IGROV1 ovarian): 10000 nM
- GI50 (K-562 leukemia): 154 nM
- TGI (K-562 leukemia): 1420 nM
- GI50 (KM12 colon): 113 nM
- TGI (KM12 colon): 1350 nM
- GI50 (LOX IMVI melanoma): 169 nM
- TGI (LOX IMVI melanoma): 1570 nM
- GI50 (M14 melanoma): 160 nM
- TGI (M14 melanoma): 1150 nM
- GI50 (MALME-3M melanoma): 671 nM
- TGI (MALME-3M melanoma): 3970 nM
- GI50 (MCF7 breast): 82.8 nM
- TGI (MCF7 breast): 12200 nM
- GI50 (MDA-MB-231 breast): 171 nM
- TGI (MDA-MB-231 breast): 599 nM
- GI50 (MDA-MB-435 melanoma): 756 nM
- TGI (MDA-MB-435 melanoma): 2430 nM
- GI50 (MDA-MB-468 breast): 138 nM
- TGI (MDA-MB-468 breast): 350 nM
- GI50 (NCI-H226 lung): 311 nM
- TGI (NCI-H226 lung): 8810 nM
